Data on 19 compounds can be found in patent US20200288710A1, “SUBSTITUTED SULPHONAMIDES FOR CONTROLLING ANIMAL PESTS” (BAYER CROPSCIENCE AKTIENGESELLSCHAFT, priority 2016, published 2020).

What all share (type): in vivo
Assay [1] concerns Myzus persicae. The assay can be described thus: Myzus persicae oral test. The settings on record: 120 h, 20 ppm, oral uptake, after 5 days, read-out: efficacy. The method in brief:
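Compound dissolved in acetone, diluted in water, then mixed 50:150 μl with IPL41 insect medium (33%+15% sugar). Mixed-population green peach aphids feed through a parafilm seal on the solution; mortality scored as % efficacy after 5 days (100% = all killed).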

The test system of assay [2] is Meloidogyne incognita. The assay can be described thus: Meloidogyne incognita test. To be noted: 336 h, lettuce, after 14 days, read-out: nematicidal efficacy (formation of galls). In a few lines: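 Active compound in acetone, diluted with water, added to sand-filled vessels with M. incognita eggs/larvae and lettuce seeds. After 14 days, efficacy scored by root gall formation: 100% = no galls, 0% = galls equal to untreated control.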

For assay [3], the system named is Aphis gossypii. The assay can be described thus: Aphis gossypii spray test. The settings on record: 100 ppm, cotton plants, after 6 days. As for the experimental part: Aphis gossypii—Spray Test Solvent: 14 parts by weight of dimethylformamide Emulsifier: alkylaryl polyglycol ether To produce a suitable preparation of active compound, 1 part by weight of active compound is dissolved using the specified parts by weight of solvent and made up with water containing an emulsifier concentration of 1000 ppm until the desired concentration is attained. To produce further test concentrations, the formulation is diluted with emulsifier-containing water. If the addition of ammonium salts or/and penetrants is required, these are each added in a concentration of 1000 ppm to the formulation solution. Cotton plants (Gossypium hirsutum) which are heavily infested by the cotton aphid (Aphis gossypii) are sprayed with an active compound preparation of the desired concentration. After 6 days, the kill in % is determined. 100% means that all the aphids have been killed; 0% means that no aphids have been killed.

The test system of assay [4] is Myzus persicae. Description: Myzus persicae spray test (bell pepper plants). To be noted: 144 h, after 6 days, read-out: efficacy (kill in %). The method, then:
Myzus persicae—Spray Test Solvent: 14 parts by weight of dimethylformamide Emulsifier: alkylaryl polyglycol ether To produce a suitable preparation of active compound, 1 part by weight of active compound is dissolved using the specified parts by weight of solvent and made up with water containing an emulsifier concentration of 1000 ppm until the desired concentration is attained. To produce further test concentrations, the formulation is diluted with emulsifier-containing water. If the addition of ammonium salts or/and penetrants is required, these are each added in a concentration of 1000 ppm to the formulation solution. Bell pepper plants (Capsicum annuum) severely infested with the green peach aphid (Myzus persicae) are treated by spraying with the active compound preparation in the desired concentration. After 6 days, the kill in % is determined. 100% means that all of the aphids have been killed; 0% means that none of the aphids have been killed.

The subject of assay [5] is Phaedon cochleariae. Description: Phaedon cochleariae spray test. To be noted: foliar, 168 h, Chinese cabbage leaf discs, larvae, after 7 days, read-out: efficacy. In a few lines:
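Compound dissolved in solvent and diluted with water containing 1000 ppm emulsifier to test concentrations. Efficacy read after 7 days as % beetle larvae killed (100% all killed, 0% none).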

For assay [6], the system named is Tetranychus urticae. The assay can be described thus: Tetranychus urticae spray test, OP-resistant. To be noted: foliar, 144 h, bean leaf discs, after 6 days, read-out: efficacy. As for the experimental part:
Tetranychus urticae—Spray Test, OP-Resistant
To produce a suitable preparation of active compound, 1 part by weight of active compound is dissolved using the specified parts by weight of solvent and made up with water containing an emulsifier concentration of 1000 ppm until the desired concentration is attained. To produce further test concentrations, the formulation is diluted with emulsifier-containing water.
Discs of bean leaves (Phaseolus vulgaris) infested with all stages of the greenhouse red spider mite (Tetranychus urticae) are sprayed with an active compound preparation of the desired concentration.
After 6 days, the efficacy in % is determined. 100% means that all the spider mites have been killed; 0% means that no spider mites have been killed.

Assay [7] has as its system Musca domestica. Description: Musca domestica test. To be noted: 48 h, adult houseflies, after 2 days, read-out: efficacy (kill in %). The method, then:
Musca domestica Test Solvent: dimethyl sulphoxide To produce a suitable preparation of active compound, 10 mg of active compound are mixed with 0.5 ml of dimethyl sulphoxide, and the concentrate is diluted with water to the desired concentration. Vessels containing a sponge treated with sugar solution and the active compound preparation of the desired concentration are populated with 10 adult houseflies (Musca domestica). After 2 days, the kill in % is determined. 100% means that all of the flies have been killed; 0% means that none of the flies have been killed.

In assay [8] the test system is Lucilia cuprina. The assay can be described thus: Lucilia cuprina test. To be noted: 48 h, L1 larvae, after 2 days, read-out: efficacy (kill in %). In a few lines: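 About 20 L1 larvae were held on minced horsemeat treated with compound, which was formulated in DMSO and diluted with water. Percent kill was scored after 2 days.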
Assay [9] concerns Boophilus microplus. Description: Boophilus microplus injection test. The settings on record: 20 μg/animal, injection into engorged adult female cattle ticks, after 7 days. The method, then:
Boophilus microplus—Injection Test Solvent: dimethyl sulphoxide To produce a suitable preparation of active compound, 10 mg of active compound are mixed with 0.5 ml of solvent and the concentrate is diluted with solvent to the desired concentration. 1 μl of the active compound solution is injected into the abdomen of 5 engorged adult female cattle ticks (Boophilus microplus). The animals are transferred into dishes and kept in a climate-controlled room. Efficacy is assessed after 7 days by laying of fertile eggs. Eggs which are not externally visibly fertile are stored in a climate-controlled cabinet until the larvae hatch after about 42 days. An efficacy of 100% means that none of the ticks has laid any fertile eggs; 0% means that all the eggs are fertile.

For assay [10], the system named is Myzus persicae. Description: Myzus persicae spray test (Chinese cabbage leaf discs). The settings on record: foliar, 120 h, 500 g/ha, after 5-6 days, read-out: efficacy. In a few lines:
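Chinese cabbage leaf discs infested with all stages of green peach aphid were sprayed with compound formulated in acetone/DMF and emulsifier-containing water. Efficacy in % was scored after 5-6 days, with 100% meaning all aphids killed and 0% none killed.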

The structures appear in SMILES notation.

Regarding `Cc1c(C(=O)NS(=O)(=O)c2ccccc2Cl)nc(-c2c(F)cccc2F)n1C` [Example 194], the figures for the pest or weed control at 20 ppm in assay [1] and in assay [2] were 100% and 90%, respectively. In [3], the “efficacy (kill in %)” value is 100%.
For `Cc1c(C(=O)NS(=O)(=O)c2ccccc2Br)nc(-c2c(F)cccc2F)n1C` [Example 195], the results for the pest or weed control at 20 ppm in [1], in assay [2] and in assay [4] (20 ppm) were 100%, 90% and 80%, respectively. Further, the figures for the pest or weed control at 500 g/ha in [5] and in assay [6] were 100% and 90%, respectively.
Consider `Cc1c(C(=O)NS(=O)(=O)c2ccccc2Cl)nc(-c2ccccc2Cl)n1C` [Example 103], for which the pest or weed control at 20 ppm in assay [1] and in [2] was 100% in each case. In assay [3], the “efficacy (kill in %)” value amounted to 98%.
In the case of `CCc1ccccc1S(=O)(=O)NC(=O)c1cn(C)c(-c2ccccc2Cl)n1` [Example 219], the pest or weed control at 20 ppm in assay [1] is 100%; in [2], 90%. The pest or weed control at 100 ppm was 85% in assay [7] and 100% in assay [8]. In [9], the “efficacy (laying of fertile eggs)” value was determined as 80%. Moreover, the pest or weed control at 500 g/ha in [10] stood at 100%.
For the compound `Cc1ccccc1S(=O)(=O)NC(=O)c1cn(C)c(-c2ccc(Cl)c(Cl)c2)n1` [Example 536], the pest or weed control at 20 ppm in assay [1] came out at 100%; in assay [2], 90%. Moreover, the pest or weed control at 100 ppm in assay [4] stood at 80%.
For `Cc1ccccc1S(=O)(=O)NC(=O)c1cn(C)c(-c2ccccc2-c2ccccc2)n1` [Example 533], in [1], the pest or weed control at 20 ppm was found to be 100%. The pest or weed control at 100 ppm in assay [4] was 90%.
As for `Cc1[nH]c(-c2ccc(F)cc2F)nc1C(=O)NS(=O)(=O)c1ccccc1Cl` [Example 616], the pest or weed control at 20 ppm in assay [1] and in [2] was 100% throughout. Further, the pest or weed control at 100 ppm in [4] was 97%.
In the case of `Cc1[nH]c(-c2ccc(Cl)c(Cl)c2)nc1C(=O)NS(=O)(=O)C(C)C` [Example 237], the pest or weed control at 20 ppm in assay [1] was 100%. In [4], the pest or weed control at 100 ppm worked out at 90%.
Regarding `Cc1ccc(C)c(S(=O)(=O)NC(=O)c2cn(C)c(-c3cccc4ccccc34)n2)c1` [Example 502], the pest or weed control at 20 ppm in [1] and in [2] was 100% throughout. Besides, the “efficacy (kill in %)” value in [3] was 95%. In addition, in assay [5], the pest or weed control at 500 g/ha was 100%.
On to `Cc1cccc(C)c1S(=O)(=O)NC(=O)c1cn(C)c(-c2c(F)cccc2F)n1` [Example 186], for which the pest or weed control at 20 ppm in assay [1] turned out to be 100%; in assay [2], 90%. The pest or weed control at 100 ppm in assay [7] came out at 85%; in assay [8] it was 100%. Moreover, the pest or weed control at 500 g/ha in assay [5] and in assay [10] was 100% throughout.
Consider `Cc1[nH]c(C(=O)NS(=O)(=O)c2ccccc2Br)nc1-c1c(F)cccc1F` [Example 146], for which the pest or weed control at 100 ppm in assay [4] came to 90%.
For the compound `CCn1cc(C(=O)NS(=O)(=O)c2cc(OC)ccc2Cl)nc1-c1ccccc1Cl` [Example 68], the pest or weed control at 20 ppm was 100% in assay [1] and 90% in assay [2]. The values for the pest or weed control at 100 ppm in assay [4], in assay [7] and in assay [8] were 100%, 80% and 100%, respectively.
For the compound `Cc1ccccc1S(=O)(=O)NC(=O)c1cn(C)c(-c2c(C)cccc2C)n1` [Example 478], the pest or weed control at 20 ppm in [1] amounted to 100%; in assay [2], 90%. Also, the pest or weed control at 100 ppm in [4] was determined as 99%.
For `COc1ccccc1S(=O)(=O)NC(=O)c1cn(C)c(-c2ncccc2F)n1` [Example 538], in that order: 100%, 90% and 100%.
For `Cn1cc(C(=O)NS(=O)(=O)Cc2ccccc2)nc1-c1ccccc1Cl` [Example 60], in that order: 100%, 100% and 85%.
On to `CCn1c(C(=O)NS(=O)(=O)c2ccccc2Br)nc(-c2c(F)cccc2F)c1C` [Example 415], for which the pest or weed control at 20 ppm in assay [1] and in assay [2] was 100% in each case. The pest or weed control at 100 ppm in assay [4] was found to be 100%.
Turning to `Cc1ccccc1S(=O)(=O)NC(=O)c1cn(C)c(-c2cccc(F)c2F)n1` [Example 518], the pest or weed control at 20 ppm was 100% in [1] and 90% in assay [2]. In addition, the pest or weed control at 100 ppm in [4] was 95%.
`Cc1nc(C)c(S(=O)(=O)NC(=O)c2cn(C)c(-c3c(F)cccc3F)n2)s1` [Example 347]: the pest or weed control at 20 ppm in [1] turned out to be 90%. In assay [4], the pest or weed control at 100 ppm came out at 90%.
Regarding `Cc1ccc(C)c(S(=O)(=O)NC(=O)c2cn(C)c(-c3c(F)cccc3F)n2)c1` [Example 394], the pest or weed control at 20 ppm is 100% in assay [1] and 90% in assay [2]. For the same compound, the pest or weed control at 100 ppm came out at 100% in [7] and 95% in assay [8]. Moreover, the pest or weed control at 500 g/ha in [5] and in assay [10] was 100% in each case.
